Experimental data from patent publication US12371454B2, “Cyclic peptide compound having Kras inhibitory action” (priority 2019, dated 2025).
Starred links: 1 amine or outer side, 2 acyl side, 3 side chain; linkers in the order of their positions; H or OH if unused. Positions of bridges follow the written chain, without caps; N, C: chain ends. Non-standard residues stand in square brackets, D forms with d. Residues, ends and D or L forms follow the SMILES beside them. *: point of attachment. hPhe(3-Cl-4-CF3) = N[C@@H](CCc1ccc(C(F)(F)F)c(Cl)c1)C(=O)O; NMePhe(4-CN) = CN[C@@H](Cc1ccc(C#N)cc1)C(=O)O; hPhe(4-Cl) = N[C@@H](CCc1ccc(Cl)cc1)C(=O)O; NMedβ3hAla = C[C@H](CC(=O)[*:2])N(C)[*:1]; NMeAla(cPent) = CN[C@@H](CC1CCCC1)C(=O)O; NMeGly(cPent) = CN[C@H](C(=O)O)C1CCCC1; NMeGly(cBu) = CN[C@H](C(=O)O)C1CCC1; NMeCha = CN[C@@H](CC1CCCCC1)C(=O)O; NMeChg = CN[C@H](C(=O)O)C1CCCCC1; NMeF = CN[C@@H](Cc1ccccc1)C(=O)O; NMeI = CC[C@H](C)[C@H](NC)C(=O)O; NMeD = CN[C@@H](CC(=O)O)C(=O)O; NMeL = CN[C@@H](CC(C)C)C(=O)O; NMeV = CN[C@H](C(=O)O)C(C)C; d(β3hA) = C[C@@H](N)CC(=O)O; NMeS = CN[C@@H](CO)C(=O)O; Morpholide = C1CN(*)CCO1; NMeA = CN[C@@H](C)C(=O)O; Piperidide = C1CCN(*)CC1; Ac5c = NC1(C(=O)O)CCCC1; Aze = O=C(O)[C@@H]1CCN1; Cyclobutyl = C1CC(*)C1; Sar = CNCC(=O)O

Legend:
[1] = target: T1, Kras and SOS1 (biotin-tagged human Kras loaded with GDP, His-tagged human SOS1) (Homo sapiens, UniProt P01116, G12D); assay: Protein-protein interaction inhibition between Kras and SOS1 (KrasGl2D-SOS PPI) using AlphaScreen; type: binding; settings: AlphaScreen; biotin-tagged human Kras loaded with GDP, His-tagged human SOS1; read-out: KRAS G12D-SOS PPI IC50
T1 construct: made in house; host or cells: E. coli (stated for Kras only)
How it was run: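 AlphaScreen format: Ni donor beads capture His-SOS1, streptavidin acceptor beads capture biotinylated Kras (E. coli-expressed, GDP-loaded post-purification). Excite 680 nm, read 520-620 nm.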

[2] = test system: Human pancreatic cancer cell line AsPC-1; assay: Measurement of AsPC-1 cell growth inhibition (AsPC-1 CGI); type: cell-based; settings: 96 h
How it was run: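 AsPC-1 cells in 15% FBS RPMI-1640 were exposed to test compound for 96 hours at 37° C, with CellTiter-Glo as endpoint.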

T1 sequence (P01116 1-188 isoform P01116-2 G12D): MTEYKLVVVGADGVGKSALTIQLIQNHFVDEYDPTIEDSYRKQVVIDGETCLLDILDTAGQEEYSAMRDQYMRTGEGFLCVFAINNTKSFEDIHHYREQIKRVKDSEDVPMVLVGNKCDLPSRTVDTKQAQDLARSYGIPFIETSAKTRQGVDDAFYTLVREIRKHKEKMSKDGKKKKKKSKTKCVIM

Row | Structure (SMILES) | IC50 [1] [nM] | IC50 [2] [nM]
1 | CC[C@H](C)[C@@H]1NC(=O)[C@H](CC(C)C)N(C)C(=O)C[C@@H](C(=O)N(C)C)N(C)C(=O)[C@H](C2CCCC2)N(C)C(=O)C2(CCCC2)NC(=O)[C@H](Cc2ccccc2)N(C)C(=O)[C@H](CCc2ccc(C(F)(F)F)c(Cl)c2)NC(=O)CN(C)C(=O)[C@H](CC2CCCCC2)N(C)C(=O)[C@@H]2CCN2C(=O)[C@H](C)N(C)C1=O [Compound 854] ([NMeL]I[NMeA][Aze][NMeCha][Sar][hPhe(3-Cl-4-CF3)][NMeF][Ac5c][NMeGly(cPent)][NMeD]-NMe2; lactam N-11) | 11 | 100 to 500
2 | CC[C@H](C)[C@@H]1NC(=O)[C@H](CC(C)C)N(C)C(=O)C[C@@H](C(=O)N2CCCCC2)N(C)C(=O)[C@H](C(C)C)N(C)C(=O)C2(CCCC2)NC(=O)[C@@H]2CCCN2C(=O)[C@H](CCc2ccc(C(F)(F)F)c(Cl)c2)NC(=O)CN(C)C(=O)[C@H](COC2CCC2)N(C)C(=O)[C@@H]2CCN2C(=O)[C@H](C)N(C)C1=O [Compound 880] ([NMeL]I[NMeA][Aze][NMeS](Cyclobutyl)[Sar][hPhe(3-Cl-4-CF3)]P[Ac5c][NMeV][NMeD]-Piperidide; lactam N-11) | 2.9 | 100 to 500
3 | CC[C@H](C)[C@@H]1NC(=O)[C@H](CC(C)C)N(C)C(=O)C[C@@H](C)N(C)C(=O)[C@H](C(C)C)N(C)C(=O)C2(CCCC2)NC(=O)[C@@H]2CCCN2C(=O)[C@H](CCc2ccc(C(F)(F)F)c(Cl)c2)NC(=O)CN(C)C(=O)[C@H](Cc2ccc(C#N)cc2)N(C)C(=O)CN(C)C(=O)CN(C)C1=O [Compound 888] (cyclo([Ac5c][NMeV][NMedβ3hAla][NMeL]I[Sar][Sar][NMePhe(4-CN)][Sar][hPhe(3-Cl-4-CF3)]P)) | 3.9 | 100 to 500
4 | CC[C@H](C)[C@@H]1NC(=O)[C@H](C2CCC2)N(C)C(=O)C[C@@H](C(=O)N2CCOCC2)N(C)C(=O)[C@H](C2CCCCC2)N(C)C(=O)C2(CCCC2)NC(=O)[C@@H]2CCCN2C(=O)[C@H](CCc2ccc(C(F)(F)F)c(Cl)c2)NC(=O)CN(C)C(=O)[C@H](CC2CCCCC2)N(C)C(=O)CN(C)C(=O)CN(C)C1=O [Compound 890] ([NMeGly(cBu)]I[Sar][Sar][NMeCha][Sar][hPhe(3-Cl-4-CF3)]P[Ac5c][NMeChg][NMeD]-Morpholide; lactam N-11) | 0.47 | 20 to 50
5 | CC[C@H](C)[C@@H]1NC(=O)[C@H](CC(C)C)N(C)C(=O)C[C@@H](C(=O)N2CCCCC2)N(C)C(=O)[C@H](C(C)C)N(C)C(=O)C2(CCCC2)NC(=O)[C@@H]2CCCN2C(=O)[C@H](CCc2ccc(Cl)cc2)NC(=O)CN(C)C(=O)[C@H](CC2CCCCC2)N(C)C(=O)CN(C)C(=O)CN(C)C1=O [Compound 893] ([NMeL]I[Sar][Sar][NMeCha][Sar][hPhe(4-Cl)]P[Ac5c][NMeV][NMeD]-Piperidide; lactam N-11) | 21 | 100 to 500
6 | CC[C@H](C)[C@@H]1NC(=O)[C@H](CC2CCCC2)N(C)C(=O)C[C@@H](C)NC(=O)[C@H](C(C)C)N(C)C(=O)C2(CCCC2)NC(=O)[C@@H]2CCCN2C(=O)[C@H](CCc2ccc(C(F)(F)F)c(Cl)c2)NC(=O)CN(C)C(=O)[C@H](CC2CCCCC2)N(C)C(=O)CN(C)C(=O)CN(C)C1=O [Compound 901] (cyclo([Ac5c][NMeV][d(β3hA)][NMeAla(cPent)]I[Sar][Sar][NMeCha][Sar][hPhe(3-Cl-4-CF3)]P)) | 35 | 100 to 500
7 | CC[C@H](C)[C@@H]1NC(=O)[C@H](CC(C)C)N(C)C(=O)C[C@@H](C)N(C)C(=O)[C@H]([C@@H](C)CC)N(C)C(=O)C2(CCCC2)NC(=O)[C@@H]2CCCN2C(=O)[C@H](CCc2ccc(C(F)(F)F)c(Cl)c2)NC(=O)CN(C)C(=O)[C@H](CC2CCCCC2)N(C)C(=O)CN(C)C(=O)CN(C)C1=O [Compound 904] (cyclo([Ac5c][NMeI][NMedβ3hAla][NMeL]I[Sar][Sar][NMeCha][Sar][hPhe(3-Cl-4-CF3)]P)) | 7.3 | 50 to 100
